Measured values published in patent US9359398B2, “Compounds for immunoproteasome inhibition” (Onyx Therapeutics, Inc., priority 2010, dated 2016).

Legend:
[1] = molecular target: immunoproteasome (L7) (Homo sapiens, UniProt P28062); experiment: Enzyme kinetic assay of chymotrypsin-like (CT-L) activity, isolated 20S immunoproteasome prep; type: biochemical; settings: for EC50 ratio (B5/L7): 20S ratio: EC50 constitutive / EC50 immunoproteasome, greater than one = prefers immunoproteasome
Text: (§1) This can be done using enzyme kinetic assays such as those disclosed in U.S. application Ser. No. 09/569,748, Example 2 and Stein et al., Biochem. […] A ratio of less than one denotes the molecule inhibits the CT-L activity of the constitutive proteasome better than that of the immunoproteasome. Ratios greater than one signifies the molecule inhibits chymotrypsin-like activity of the immunoproteasome better than that of the constitutive proteasome.

[2] = molecular target: constitutive proteasome (B5) (Homo sapiens, UniProt P28074); experiment: Enzyme kinetic assay of chymotrypsin-like (CT-L) activity, isolated 20S constitutive proteasome prep; type: biochemical; settings: isolated 20S proteasome prep with greater than 90% constitutive proteasome subunits
Text: as §1

Row | SMILES | EC50 ratio (B5/L7) [1] | EC50 for constitutive proteasome (B5) [2] | EC50 for immunoproteasome (L7) ([1]; CT-L activity, isolated 20S proteasome prep with greater than 90% immunoproteasome subunits)
1 | C[C@H](NC(=O)CN1CCOCC1)C(=O)N[C@@H](Cc1ccc(O)cc1)C(=O)N[C@@H](Cc1ccccc1)B(O)O | 18.34 |  | 
2 | C[C@@H](NC(=O)CN1CCOCC1)C(=O)N[C@@H](Cc1c[nH]c2ccccc12)C(=O)N[C@@H](Cc1ccccc1)C(=O)[C@@]1(C)CO1 | >>1.0 | Inactive | 
3 | CC(C)C[C@H](NC(=O)[C@H](Cc1ccccc1)NC(=O)c1cnccn1)C(=O)[C@@]1(C)CO1 |  | Inactive | Inactive
4 | C[C@H](NC(=O)CN1CCOCC1)C(=O)N[C@@H](Cc1ccc(O)cc1)C(=O)N[C@@H](Cc1ccccc1)C(=O)[C@@]1(C)CO1 | 17.04 |  | 
5 | CC(C)C[C@H](NC(=O)[C@H](Cc1ccccc1)NC(=O)[C@H](CC(C)C)NC(=O)[C@H](CCc1ccccc1)NC(=O)CN1CCOCC1)B(O)O | 1.10 |  | 
6 | C[C@@H](NC(=O)CN1CCOCC1)C(=O)N[C@@H](Cc1c[nH]c2ccccc12)C(=O)N[C@@H](Cc1ccccc1)B(O)O | 6.49 |  | 
